The record followed here is the supplement of paper PMC10307832.

Holding throughout (experiment): relative viability (nuclei count vs DMSO), 5 days (fraction); higher = more cells survive
Compound in the assay “Selumetinib + Navitoclax”: Cn1cnc2c(F)c(Nc3ccc(Br)cc3Cl)c(C(=O)NOCCO)cc21 [Selumetinib] + CC1(C)CCC(c2ccc(Cl)cc2)=C(CN2CCN(c3ccc(C(=O)NS(=O)(=O)c4ccc(N[C@H](CCN5CCOCC5)CSc5ccccc5)c(S(=O)(=O)C(F)(F)F)c4)cc3)CC2)C1 [Navitoclax] (partner 0.5 µM)
A digest of the protocol: (§1)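 Lung cancer cell lines in 1536-well plates were dosed by pin tool the day after seeding, either with one drug alone or with a fixed anchor-drug dose plus five library-drug doses (not always all listed) in √10 steps. After 5 days, cells were fixed and their nuclei stained in one step (final 0.05% Triton X-100, 1% formaldehyde, 1 ug/ml Hoechst), then counted on 4× images. Relative viability is the nuclei count in treated wells divided by that in vehicle wells. Values are medians of duplicate plates.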

Compound in the assay “Selumetinib + Vorinostat”: Cn1cnc2c(F)c(Nc3ccc(Br)cc3Cl)c(C(=O)NOCCO)cc21 [Selumetinib] + O=C(CCCCCCC(=O)Nc1ccccc1)NO [Vorinostat] (partner 1 µM)
The gist of the method: as §1

Compound in the assay “Venetoclax + Palbociclib”: CC1(C)CCC(CN2CCN(c3ccc(C(=O)NS(=O)(=O)c4ccc(NCC5CCOCC5)c([N+](=O)[O-])c4)c(Oc4cnc5[nH]ccc5c4)c3)CC2)=C(c2ccc(Cl)cc2)C1 [Venetoclax] + CC(=O)c1c(C)c2cnc(Nc3ccc(N4CCNCC4)cn3)nc2n(C2CCCC2)c1=O [Palbociclib] (partner 0.5 µM)
The gist of the method: as §1

Compound in the assay “Selumetinib + Phenformin”: Cn1cnc2c(F)c(Nc3ccc(Br)cc3Cl)c(C(=O)NOCCO)cc21 [Selumetinib] + N=C(N)NC(=N)NCCc1ccccc1 [Phenformin] (partner 250 µM)
The gist of the method: as §1

Consider UMC-11, for which the relative viability in the assay with Selumetinib + Navitoclax (first compound 0.02 µM) came to 0.273; with Selumetinib + Navitoclax (first compound 0.06325 µM), 0.311; with Selumetinib + Navitoclax (first compound 0.2 µM), 0.3; with Selumetinib + Navitoclax (first compound 0.6325 µM) it was 0.314; in the assay with Selumetinib + Vorinostat (first compound 0.02 µM) it was 0.387; with Selumetinib + Vorinostat (first compound 0.06325 µM), 0.285. In addition, the relative viability was 0.348 with Selumetinib + Vorinostat (first compound 0.2 µM); 0.368 in the assay with Selumetinib + Vorinostat (first compound 0.6325 µM); 0.37 in the assay with Venetoclax + Palbociclib (first compound 0.01 µM); 0.334 in the assay with Venetoclax + Palbociclib (first compound 0.03162 µM); 0.277 in the assay with Venetoclax + Palbociclib (first compound 0.1 µM); 0.304 with Venetoclax + Palbociclib (first compound 0.3162 µM). The relative viability with Venetoclax + Palbociclib (first compound 1 µM) is 0.324; in the assay with Selumetinib + Phenformin (first compound 0.02 µM) it was 0.301; in the assay with Selumetinib + Phenformin (first compound 0.06325 µM), 0.284; with Selumetinib + Phenformin (first compound 0.2 µM), 0.307; in the assay with Selumetinib + Phenformin (first compound 0.6325 µM), 0.323.
